In assay [1] the target is T1, PI3KCB (PI3K p110β/p85α (h)) (Homo sapiens, UniProt P42338).
T1 construct: purchased Millipore
The assay is described as follows: Commercial kinase activity assay (Millipore, HTRF). In kind it is biochemical. As to conditions: 10 μM test compound. The method, then:
LOK (h) was incubated with 8 mM MOPS pH 7.0, 0.2 mM EDTA, 250 μM […], 10 mM MgAcetate and [γ-^33P-ATP] (specific activity approx. 500 cpm/pmol, concentration as required). The reaction was initiated by the addition of the MgATP mix. After incubation for 40 minutes at room temperature, the reaction was stopped by the addition of 3% phosphoric acid solution. 10 μL of the reaction was then spotted onto a P30 filtermat and washed three times for 5 minutes in 75 mM phosphoric acid and once in methanol prior to drying and scintillation counting. PI3K p110β/p85α (h) PI3K (p110β/p85α) (h) was incubated in assay buffer containing 10 μM phosphatidylinositol-4,5-bisphosphate and MgATP (concentration as required). The reaction was initiated by the addition of the MgATP mix. After incubation for 30 minutes at room temperature, the reaction was stopped by the addition of stop solution containing EDTA and biotinylated phosphatidylinositol-3,4,5-trisphosphate. Finally, detection buffer was added, which contains europium-labelled anti-GST monoclonal antibody, GST-tagged GRP1 PH domain and streptavidinallophycocyanin. The plate was then read in time-resolved fluorescence mode and the homogenous time-resolved fluorescence (HTRF®) signal determined according to the formula HTRF=10000×(Em665nm/Em620 nm). […]

The next assay deals with T2, LOK (h) (Homo sapiens, UniProt O94804).
T2 construct: purchased Millipore
As to the kind of experiment: Commercial kinase activity assay (Millipore, 33P-ATP filter). In kind it is biochemical. To be noted: 10 μM test compound. The method, then:
LOK (h) was incubated with 8 mM MOPS pH 7.0, 0.2 mM EDTA, 250 μM […], 10 mM MgAcetate and [γ-^33P-ATP] (specific activity approx. 500 cpm/pmol, concentration as required). The reaction was initiated by the addition of the MgATP mix. After incubation for 40 minutes at room temperature, the reaction was stopped by the addition of 3% phosphoric acid solution. 10 μL of the reaction was then spotted onto a P30 filtermat and washed three times for 5 minutes in 75 mM phosphoric acid and once in methanol prior to drying and scintillation counting. PI3K p110β/p85α (h) PI3K (p110β/p85α) (h) was incubated in assay buffer containing 10 μM phosphatidylinositol-4,5-bisphosphate and MgATP (concentration as required). The reaction was initiated by the addition of the MgATP mix. After incubation for 30 minutes at room temperature, the reaction was stopped by the addition of stop solution containing EDTA and biotinylated phosphatidylinositol-3,4,5-trisphosphate. Finally, detection buffer was added, which contains europium-labelled anti-GST monoclonal antibody, GST-tagged GRP1 PH domain and streptavidinallophycocyanin. The plate was then read in time-resolved fluorescence mode and the homogenous time-resolved fluorescence (HTRF®) signal determined according to the formula HTRF=10000×(Em665nm/Em620 nm). YSK4 (h) YSK4 (h) was incubated with 8 mM MOPS pH 7.0, 0.2 mM EDTA, 250 […], 10 mM MgAcetate and [γ-^33P-ATP] (specific activity approx. 500 cpm/pmol, concentration as required). The reaction was initiated by the addition of the MgATP mix. After incubation for 40 minutes at room temperature, the reaction was stopped by the addition of 3% phosphoric acid solution. 10 μL of the reaction was then spotted onto a P30 filtermat and washed three times for 5 minutes in 75 mM phosphoric acid and once in methanol prior to drying and scintillation counting. PI4KA (PI4K alpha) The 2× PI4KA (PI4K alpha)/PI Lipid Kinase Substrate mixture was prepared in 20 mM Tris, pH 7.5, 0.4% Triton X-100, 5 mM MgCl2, 0.5 mM EGTA. The final 10 μL Kinase Reaction consisted of 75-300 ng PI4KA (PI4K alpha) and 100 μM PI Lipid Kinase Substrate in 7.5 mM HEPES, 10 mM Tris, pH 7.5, 0.2% Triton X-100, 2.5 mM MgCl2, 0.25 mM EGTA. After the 1 hour Kinase Reaction incubation, 5 μL of Detection Mix consisting of a europium labeled anti-ADP antibody, an Alexa Fluor® 647 labeled ADP tracer, and EDTA (to stop the kinase reaction) was added to the assay well. ADP formed by the kinase reaction (in the absence of an inhibitor) displaced the Alexa Fluor® 647 labeled ADP tracer from the antibody, resulting in a decrease in the TR-FRET signal. […] PI4KB (PI4K beta) The 2× PI4KB (PI4K beta)/PI Lipid Kinase Substrate mixture was prepared in 50 mM HEPES pH 7.5, 0.1% CHAPS, 1 mM EGTA, 4 mM MgCl2. […]

In the next assay the target is T3, ADCK3 (Homo sapiens, UniProt Q8NI60).
T3 construct: made in house; host or cells: E. coli BL21-derived host (T7 phage) or HEK-293
As to the kind of experiment: Kinase-tagged phage competition binding assay (qPCR), 382-kinase library. (Quantitative PCR measures a nucleic acid by following its amplification.)

The target of the next assay is T4, PAK1 (Homo sapiens, UniProt Q13153).
T4 construct: made in house; host or cells: E. coli BL21-derived host (T7 phage) or HEK-293
The assay is described as follows: Commercial kinase activity assay (Invitrogen, fluorescence). In kind it is biochemical. To be noted: 10 μM test compound.

The values that follow come from patent US9301961B2, “Autoimmune and inflammatory disorder therapy” (Katholieke Universiteit Leuven, K.U. Leuven R&D, priority 2011, dated 2016).

pIC50: −log10 of the molar value. Where only a bound is given, the exact number is not on record here.

T3 sequence (Q8NI60 163-647): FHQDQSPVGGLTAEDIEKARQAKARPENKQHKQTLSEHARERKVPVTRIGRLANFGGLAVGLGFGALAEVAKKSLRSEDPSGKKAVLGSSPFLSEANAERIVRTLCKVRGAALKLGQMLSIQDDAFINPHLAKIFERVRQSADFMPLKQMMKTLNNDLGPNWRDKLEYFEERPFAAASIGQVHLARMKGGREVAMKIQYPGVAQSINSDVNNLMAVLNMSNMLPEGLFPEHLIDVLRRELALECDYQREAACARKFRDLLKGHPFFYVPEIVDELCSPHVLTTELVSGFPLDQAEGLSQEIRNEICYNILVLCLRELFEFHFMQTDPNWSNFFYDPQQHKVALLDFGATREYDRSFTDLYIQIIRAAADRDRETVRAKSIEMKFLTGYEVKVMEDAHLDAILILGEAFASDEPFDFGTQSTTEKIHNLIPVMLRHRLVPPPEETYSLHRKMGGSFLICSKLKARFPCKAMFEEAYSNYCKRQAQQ
T1 sequence (P42338 whole entry): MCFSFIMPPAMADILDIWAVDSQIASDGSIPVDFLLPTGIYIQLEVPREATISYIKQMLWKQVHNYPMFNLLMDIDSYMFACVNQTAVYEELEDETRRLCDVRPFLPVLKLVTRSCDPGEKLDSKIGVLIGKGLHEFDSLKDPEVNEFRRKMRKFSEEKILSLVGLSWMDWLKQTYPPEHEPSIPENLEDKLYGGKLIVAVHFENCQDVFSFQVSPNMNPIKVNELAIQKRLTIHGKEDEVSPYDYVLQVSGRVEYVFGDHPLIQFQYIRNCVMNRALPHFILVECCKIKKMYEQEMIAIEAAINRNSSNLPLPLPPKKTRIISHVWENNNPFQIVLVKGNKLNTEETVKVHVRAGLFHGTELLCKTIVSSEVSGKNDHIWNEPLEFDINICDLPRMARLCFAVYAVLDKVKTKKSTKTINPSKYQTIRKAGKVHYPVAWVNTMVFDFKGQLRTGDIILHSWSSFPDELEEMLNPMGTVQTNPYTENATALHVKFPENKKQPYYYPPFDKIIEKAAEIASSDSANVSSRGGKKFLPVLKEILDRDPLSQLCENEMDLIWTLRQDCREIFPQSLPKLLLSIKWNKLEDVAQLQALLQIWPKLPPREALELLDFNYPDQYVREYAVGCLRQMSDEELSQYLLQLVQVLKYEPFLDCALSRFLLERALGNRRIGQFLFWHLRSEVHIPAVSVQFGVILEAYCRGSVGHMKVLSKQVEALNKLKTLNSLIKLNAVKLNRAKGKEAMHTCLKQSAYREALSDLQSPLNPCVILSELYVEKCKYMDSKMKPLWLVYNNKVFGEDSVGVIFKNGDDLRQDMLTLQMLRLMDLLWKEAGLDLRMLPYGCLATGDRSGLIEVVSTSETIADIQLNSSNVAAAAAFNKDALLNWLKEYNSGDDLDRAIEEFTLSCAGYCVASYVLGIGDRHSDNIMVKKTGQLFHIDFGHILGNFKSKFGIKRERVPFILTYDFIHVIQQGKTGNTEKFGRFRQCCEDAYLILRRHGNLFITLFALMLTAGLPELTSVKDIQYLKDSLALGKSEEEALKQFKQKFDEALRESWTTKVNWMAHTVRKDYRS
T1 sequence (P27986 whole entry partner): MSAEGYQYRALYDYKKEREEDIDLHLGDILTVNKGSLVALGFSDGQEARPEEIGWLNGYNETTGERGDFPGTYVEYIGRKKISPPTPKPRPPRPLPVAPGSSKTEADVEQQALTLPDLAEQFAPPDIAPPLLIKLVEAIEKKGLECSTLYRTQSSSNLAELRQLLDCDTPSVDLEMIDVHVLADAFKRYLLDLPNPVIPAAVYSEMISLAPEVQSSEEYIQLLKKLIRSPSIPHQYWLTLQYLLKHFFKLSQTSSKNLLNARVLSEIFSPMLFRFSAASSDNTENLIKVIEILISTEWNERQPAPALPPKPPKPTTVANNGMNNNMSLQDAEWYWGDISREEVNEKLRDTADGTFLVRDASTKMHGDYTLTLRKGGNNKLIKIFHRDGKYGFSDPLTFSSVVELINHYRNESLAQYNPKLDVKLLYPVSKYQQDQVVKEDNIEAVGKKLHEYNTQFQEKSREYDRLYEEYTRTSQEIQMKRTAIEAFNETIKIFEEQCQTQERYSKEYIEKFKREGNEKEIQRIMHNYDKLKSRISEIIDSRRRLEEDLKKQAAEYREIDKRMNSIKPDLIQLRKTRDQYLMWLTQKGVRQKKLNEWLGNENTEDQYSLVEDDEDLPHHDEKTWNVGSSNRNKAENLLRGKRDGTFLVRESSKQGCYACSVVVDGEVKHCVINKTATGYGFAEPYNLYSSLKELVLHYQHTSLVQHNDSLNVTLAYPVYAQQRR
T4 sequence (Q13153 whole entry): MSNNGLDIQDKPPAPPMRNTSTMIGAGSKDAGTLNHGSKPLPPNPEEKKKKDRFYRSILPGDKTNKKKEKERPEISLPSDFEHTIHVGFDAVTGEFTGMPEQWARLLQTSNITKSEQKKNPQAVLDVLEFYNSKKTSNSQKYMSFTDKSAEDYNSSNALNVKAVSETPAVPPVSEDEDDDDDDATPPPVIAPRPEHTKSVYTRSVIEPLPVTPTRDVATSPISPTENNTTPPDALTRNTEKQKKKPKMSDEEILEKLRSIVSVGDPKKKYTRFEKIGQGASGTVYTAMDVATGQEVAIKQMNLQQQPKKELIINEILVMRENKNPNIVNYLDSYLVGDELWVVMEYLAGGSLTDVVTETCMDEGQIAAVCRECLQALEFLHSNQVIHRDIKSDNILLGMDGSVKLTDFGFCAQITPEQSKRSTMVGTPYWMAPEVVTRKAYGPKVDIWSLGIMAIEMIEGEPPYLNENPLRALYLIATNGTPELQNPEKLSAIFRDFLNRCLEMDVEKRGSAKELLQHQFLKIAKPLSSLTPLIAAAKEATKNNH
T2 sequence (O94804 whole entry): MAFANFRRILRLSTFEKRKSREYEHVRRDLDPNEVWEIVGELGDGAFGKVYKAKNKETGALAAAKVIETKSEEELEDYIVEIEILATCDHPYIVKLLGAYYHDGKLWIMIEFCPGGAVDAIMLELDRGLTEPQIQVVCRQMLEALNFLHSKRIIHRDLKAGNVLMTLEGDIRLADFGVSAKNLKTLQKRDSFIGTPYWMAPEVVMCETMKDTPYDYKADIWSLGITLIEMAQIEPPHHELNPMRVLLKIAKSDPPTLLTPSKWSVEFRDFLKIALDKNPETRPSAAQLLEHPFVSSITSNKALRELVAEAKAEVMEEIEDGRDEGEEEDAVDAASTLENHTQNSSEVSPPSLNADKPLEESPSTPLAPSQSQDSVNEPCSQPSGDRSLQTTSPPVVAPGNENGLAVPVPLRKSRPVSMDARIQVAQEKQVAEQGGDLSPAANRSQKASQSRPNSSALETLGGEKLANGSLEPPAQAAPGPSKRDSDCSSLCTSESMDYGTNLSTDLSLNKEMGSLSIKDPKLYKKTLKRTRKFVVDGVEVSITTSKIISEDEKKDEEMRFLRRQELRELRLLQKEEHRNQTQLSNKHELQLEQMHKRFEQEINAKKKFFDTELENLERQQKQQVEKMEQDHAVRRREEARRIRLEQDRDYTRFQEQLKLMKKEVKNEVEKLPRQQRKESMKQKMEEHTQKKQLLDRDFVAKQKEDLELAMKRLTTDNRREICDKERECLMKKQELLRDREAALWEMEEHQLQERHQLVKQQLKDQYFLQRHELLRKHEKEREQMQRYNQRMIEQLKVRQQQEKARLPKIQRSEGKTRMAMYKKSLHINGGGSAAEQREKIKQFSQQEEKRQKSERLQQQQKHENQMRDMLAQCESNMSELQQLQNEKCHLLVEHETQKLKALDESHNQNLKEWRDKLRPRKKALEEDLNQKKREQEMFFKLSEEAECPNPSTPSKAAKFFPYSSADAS

Usually inhibition stands for the percentage by which the read-out fell short of the control. As a reminder, the pIC50 is the negative decadic logarithm of the IC50, by convention in mol/L. In the case of `Nc1nc(N2CCN(C(=O)COc3ccc(Cl)cc3)CC2)c2nc(-c3cccnc3)sc2n1` [formula (1), 5-amino-7-[4-(4-chlorophenoxyacetyl)piperazin-1-yl]-2-(pyridin-3-yl)thiazolo[5,4-d]pyrimidine], the Kinase activity in assay [1] is on record as 100 percentage of control; at LOK (h) it was 117 percentage of control; at PAK1, 115 percentage of control. The inhibition at 10 µM at ADCK3 (10 μM compound, read-out: % Inhibition of substrate binding) was determined as 68%. The compound also gave a pIC50 at ADCK3 (stated for the 8 kinases of Table 1) of more than 5.00.
